Laboratory results as given in patent US20100160386A1, “4-PHENOXY-NICOTINE ACID DERIVATIVES AND USE THEREOF AS PPAR-MODULATORS” (BAYER SCHERING PHARMA AKTIENGESELLSCHAFT, priority 2006, published 2010).

Molecular target: T1, human PPARα-receptor (Homo sapiens, UniProt Q07869)
T1 construct: expressed in transfected cells
T1 sequence (Q07869 167-468): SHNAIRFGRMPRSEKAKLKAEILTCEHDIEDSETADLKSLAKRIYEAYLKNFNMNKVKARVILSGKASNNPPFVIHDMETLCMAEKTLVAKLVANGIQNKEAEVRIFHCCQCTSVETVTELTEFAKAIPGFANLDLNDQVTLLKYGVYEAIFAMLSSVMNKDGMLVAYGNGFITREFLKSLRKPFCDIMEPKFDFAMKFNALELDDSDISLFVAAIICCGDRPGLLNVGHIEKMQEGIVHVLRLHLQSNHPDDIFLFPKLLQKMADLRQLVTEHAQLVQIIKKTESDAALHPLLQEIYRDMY
Test: Cellular transactivation assay (GAL4-PPARα chimera, luciferase reporter in CHO cells)
Assay type: cell-based
Conditions: CHO cells stably expressing GAL4-PPARα chimera and luciferase reporter; stimulation time 6 h
From the text: A cellular assay is used to identify activators of the peroxisome proliferator-activated receptor alpha (PPAR-alpha).
Since mammalian cells contain different endogenous nuclear receptors which can complicate unambiguous interpretation of the results, an established chimera system is used, in which the ligand binding domain of the human PPARα-receptor is fused to the DNA binding domain of the yeast transcription factors GAL4. The GAL4-PPARα chimera thus formed is co-transfected and expressed stably in CHO cells with a reporter construct.
The GAL4-PPARα expression construct contains the ligand binding domain of PPARα (amino acids 167-468), which is PCR-amplified and cloned into the vector pcDNA3.1. This vector already contains the GAL4 DNA binding domain (amino acids 1-147) of the vector pFC2-dbd (Stratagene). The reporter construct, which contains five copies of the GAL4 binding site upstream of a thymidine kinase promoter, leads to the expression of firefly luciferase (Photinus pyralis) after activation and binding of GAL4-PPARα.
The day before the test, CHO (Chinese hamster ovary) cells which stably express the above-described GAL4-PPARα chimera and luciferase reporter gene construct are plated out in 96-hole microtiter plates with 1×10^3 cells in medium (Optimem, GIBCO), 2% activated carbon-purified fetal calf serum (Hyclone), 1.35 mM sodium pyruvate (GIBCO), 0.2% sodium bicarbonate (GIBCO), and kept in a cell incubator (air humidity 96%, 5% v/v CO2, 37° C.). On the day of the test, the substances to be tested are taken up in abovementioned medium, but without addition of calf serum, and added to the cells. After a stimulation time of 6 h, the luciferase activity is measured with the aid of a video camera. The relative light units measured give a sigmoid stimulation curve as a function of the substance concentration. The EC50 values are calculated with the aid of the computer program GraphPad PRISM (Version 3.02).

EC50 | SMILES
59 nM | Cc1ccc(-c2cc(Oc3ccccc3Cl)c(C(=O)O)cn2)cc1F [Example 1, 4-(2-Chlorophenoxy)-6-(3-fluoro-4-methylphenyl)nicotinic acid]
200 nM | COc1ccc(Cl)c(Oc2cc(-c3cc(F)cc(F)c3)ncc2C(=O)O)c1 [Example 7, 4-(2-Chloro-5-methoxyphenoxy)-6-(3,5-difluorophenyl)nicotinic acid]
235 nM | COc1ccc(Oc2cc(-c3ccc(C)c(F)c3)ncc2C(=O)O)c(Cl)c1 [Example 9, 4-(2-Chloro-4-methoxyphenoxy)-6-(3-fluoro-4-methylphenyl)nicotinic acid]
